Data published in US12419875B2, “Use of Axitinib and analogs thereof in preparing blood-brain barrier permeability regulator” (ZHEJIANG UNIVERSITY, priority 2018, dated 2025).

Assays:
bEnd.3 cells = assay: Cell survival rate by tetrazolium blue colorimetry, bEnd.3 cells; type: cell-based; details: 10 μM (therapeutic dose), FIGS. 13 and 14
Description: FIG. 13: Evaluation of cell survival rate in a Transwell model. A Transwell model of co-incubation of brain microvascular endothelial cells bEnd.3 and glioma cells U87 MG simulates a pathological blood-brain barrier. Axitinib (10 μM) and an Axitinib analog of phosphatidylinositol kinase (PI3K) inhibitor LY294002 (10 μM) were added into the Transwell chamber. After 24 hours, the survival rate of bEnd.3 cells in the Transwell chamber (Panel A) and U87 MG cells in the Transwell outer chamber (Panel B) were detected by tetrazolium blue colorimetry (n=3).
FIG. 14: Evaluation of Cytotoxicity for Axitinib and an analog thereof. […] Cell survival rate was detected by tetrazolium blue colorimetry. […]
The physiological blood-brain barrier and the pathological blood-brain barrier as constructed in Method 1 and Method 2 in the Example 1 were used as models, respectively. […] Absorbance at 570 nm was measured with a microplate reader. The survival rate of cells was calculated according to the following formula: Survival rate of cells (%)=(absorbance value of a test group/absorbance value of a control group)×100%
In addition, bEnd.3 cells and U87 MG glioma cells were used as model cells to evaluate the cytotoxicity of Axitinib and an Axitinib analog of phosphatidylinositol kinase (PI3K) inhibitor LY294002 with the tetrazolium blue colorimetric method. […] Absorbance at 570 nm was measured with a microplate reader.

[1] = test system: pathological blood-brain barrier (bEnd.3 cells co-incubated with U87 MG glioma cells); assay: Pathological blood-brain barrier Transwell model, FITC-dextran transmembrane transport; type: cell-based; details: 10 μM, 24 hours, then FITC-dextran 10 kDa for 4 hours; FIG. 11
Description: A Transwell model of co-incubation of brain microvascular endothelial cells bEnd.3 and glioma cells U87 MG simulates a pathological blood-brain barrier. Axitinib (10 μM), an Axitinib analog of phosphatidylinositol kinase (PI3K) inhibitor LY294002 (10 μM), protein kinase B (AKT) agonist SC79 (10 μM) were added into the Transwell chamber. After 24 hours, the Transwell chamber and the outer chamber were cleaned with PBS, and a solution of FITC-dextran in HBSS was added to the Transwell chamber, and was left for 4 hours. […] A physiological blood-brain barrier simulated by a Transwell model of brain microvascular endothelial cell bEnd.3 was used as a positive control (n=3).
U87 MG glioma cells were used as brain tumor model cells. 1.5 mL suspension of well-grown U87 MG cell suspension was inoculated in a 12-well plate at a cell density of 2×10^5/well. Incubation was continued at 37° C. and 5% CO2 until the cells adhere. […]
The physiological blood-brain barrier and the pathological blood-brain barrier as constructed in Method 1 and Method 2 in the Example 1 were used as models, respectively. […] After the cells were incubated at 37° C. in the dark for 4 hours, concentration of FITC-dextran transferred to the outer chamber via the Transwell chamber was detected with a fluorescence spectrophotometer.

[2] = test system: pathological blood-brain barrier (bEnd.3 cells with tumor cell culture); assay: Tumor cell culture co-incubated with bEnd.3 cells (U87MG removed), cell transmembrane resistance; type: cell-based; details: tumor cell culture kept, 10 μM, 24 hours, FIG. 15
Description: FIG. 15: Co-incubation of a tumor cell culture and bEnd.3 cells in vitro, regulation of blood-brain barrier permeability by Axitinib and an analog thereof, and determination of a cell transmembrane resistance. A Transwell model of co-incubation of brain microvascular endothelial cells bEnd.3 and glioma cells U87 MG simulates a pathological blood-brain barrier. Once a pathological blood-brain barrier model was formed, U87MG glioma cells in the outer chamber of Transwell were removed, while the tumor cell cultures were remained. Axitinib (10 μM) and an Axitinib analog of phosphatidylinositol kinase (PI3K) inhibitor LY294002 (10 μM) were added to the Transwell chamber. After 24 hours, cell transmembrane resistance was detected by a cell resistance meter. A physiological blood-brain barrier simulated by a Transwell model of brain microvascular endothelial cell bEnd.3 was used as a positive control (n=5).
The physiological blood-brain barrier and the pathological blood-brain barrier as constructed in Method 1 and Method 2 in the Example 1 were used as models, respectively. Once a pathological blood-brain barrier model was formed, U87MG glioma cells in the outer chamber of Transwell were removed, while the tumor cell cultures were remained. […] Cell transmembrane resistance was detected by a cell resistance meter.

Claudin-5/Occludin = assay: Pathological blood-brain barrier Transwell model, Claudin-5/Occludin immunofluorescence; type: cell-based; details: 10 μM, 24 hours; FIG. 12
Description: A Transwell model of co-incubation of brain microvascular endothelial cells bEnd.3 and glioma cells U87 MG simulates a pathological blood-brain barrier. Axitinib (10 μM), an Axitinib analog of phosphatidylinositol kinase (PI3K) inhibitor LY294002 (10 μM), protein kinase B (AKT) agonist SC79 (10 μM) were added into the Transwell chamber. After 24 hours, immunofluorescent stain was performed on bEnd.3 cells on the Transwell chamber membrane. A physiological blood-brain barrier simulated by a Transwell model of brain microvascular endothelial cell bEnd.3 was used as a positive control.
U87 MG glioma cells were used as brain tumor model cells. 1.5 mL suspension of well-grown U87 MG cell suspension was inoculated in a 12-well plate at a cell density of 2×10^5/well. Incubation was continued at 37° C. and 5% CO2 until the cells adhere. Then, the physiological blood-brain barrier as constructed by Method 1 in the Example 1, i.e., the Transwell chamber with bEnd.3 cells grown, was transferred to the 12-well plate with U87 MG cells grown. Co-culture was further continued for 24 hours to obtain a cell model of pathological blood-brain barrier.

[3] = test system: pathological blood-brain barrier; assay: Evans blue permeation into the brain after treatment, model of Parkinson's disease; type: in vivo, C57/BL6 mice
tyrosine hydroxylase = assay: Striatum tyrosine hydroxylase immunohistochemistry, model of Parkinson's disease; details: FIG. 29
[4] = test system: pathological blood-brain barrier; assay: Evans blue permeation into the brain, in situ glioma model; type: in vivo, BABL/c nude mice; details: glioma nude mice, 10 mg/kg tail vein, Evans blue after 24 hours; vs tumor-bearing control; FIGS. 18 and 19
Description: After 24 hours, an Evans blue solution was injected into tail veins at an administration dose of 5 mg/kg.
After 24 hours, an Evans blue solution was injected into tail veins at an administration dose of 5 mg/kg. […] The Evans blue was extracted from the brain tissue with an organic solvent of N,N-dimethylformamide. The result as shown in the figure is the amount of Evans blue permeated into the brain as quantitatively detected by ultraviolet spectrophotometry (n=3).
Male BABL/c nude mice (20±2 g) were used as the model animals. U87-luci glioma cells expressing luciferase were inoculated in the striatum area of nude mice at a concentration of 5×10^5 cells/5 μL by means of a brain stereotaxic instrument (inoculation coordinates, 0.8 mm on the anterior side of bregma, 2 mm on the right side, and 3 mm in depth), to construct an in situ glioma model. […] After 24 hours, an Evans blue solution was injected into tail veins at an administration dose of 5 mg/kg. […] The distribution intensity of Evans blue in the brain tissue was qualitatively observed with a small animal live imaging instrument. The Evans blue was extracted from the brain tissue with an organic solvent of N,N-dimethylformamide. The amount of Evans blue permeated into the brain was quantitatively detected by ultraviolet spectrophotometry.

Claudin-5 = assay: Pathological blood-brain barrier Transwell model (bEnd.3 co-incubated with U87 MG), Claudin-5 immunofluorescence; type: cell-based; details: bEnd.3/U87 MG co-incubation, 24 hours; FIG. 8
Description: A transwell model of co-incubation of brain microvascular endothelial cells bEnd.3 and glioma cells U87 MG simulates a pathological blood-brain barrier. Axitinib was allowed to act on the Transwell chamber. After 24 hours, immunofluorescent staining was performed on bEnd.3 cells on the Transwell chamber membrane. A physiological blood-brain barrier simulated by a Transwell model of brain microvascular endothelial cell bEnd.3 was used as a positive control group. […] Panel B is the result of fluorescence semi-quantitative analysis of Claudin-5 expression by Image J (n=3).
Axitinib was added to the Transwell chamber. After the drug was allowed to act for 24 hours, the Transwell cell with bEnd.3 cells grown was transferred to another 12-well plate, washed with PBS for three times, fixed with 4% formaldehyde, and blocked with 10% bovine serum albumin for 30 minutes. Thereafter, Claudin-5 primary antibody was added and incubated at 4° C. overnight, and finally was incubated with fluorescently-labeled secondary antibody for 1 hour. The nucleus was counterstained with DAPI.

[5] = test system: pathological blood-brain barrier; assay: Evans blue permeation into the brain after a single dose, model of Parkinson's disease; type: in vivo, C57/BL6 mice; details: Parkinson's disease mice, 10 mg/kg tail vein, Evans blue after 24 hours; vs Parkinson's control; FIGS. 24 and 25
[6] = Axitinib 10 mg/kg 7 days vs levodopa 20 mg/kg 10 days

SMILES: CNC(=O)c1ccccc1Sc1ccc2c(/C=C/c3ccccn3)n[nH]c2c1 [Axitinib, N-methyl-2-((3-((1E)-2-(pyridine-2-yl)ethenyl)-1H-indazol-6-yl)sulfanyl)benzamide]
- Cytotoxicity (bEnd.3 cells): do not produce significant cytotoxicity
- FITC-dextran transmembrane transport (blood-brain barrier permeability) [1]: reduce blood-brain barrier permeability
- Cell transmembrane resistance (blood-brain barrier function) [2]: the blood-brain barrier function is recovered from a pathologically impaired state to a state close to a physiological barrier
- Expression of tight junction protein Claudin-5/Occludin (Claudin-5/Occludin): reduce the degree to which pathological blood-brain barrier tight junction protein of Claudin-5/Occludin is down-regulated
- Amount of Evans blue permeated into the brain, compared with the levodopa treatment group [3, 6]: significantly lower than that of the levodopa treatment group
- Amount of Evans blue permeated into the brain ([3]; Axitinib 10 mg/kg tail vein 7 days, levodopa 20 mg/kg intraperitoneally 10 days, vs Parkinson's control, FIGS. 26 and 27): reduced to varied degrees
- Expression of striatum tyrosine hydroxylase, compared with the levodopa treatment group (tyrosine hydroxylase; [6]): superior to that in the levodopa treatment group
- Expression of striatum tyrosine hydroxylase (tyrosine hydroxylase; Axitinib 10 mg/kg 7 days, levodopa 20 mg/kg 10 days): significantly up-regulated
- Amount of Evans blue permeated into the brain [4]: the amount of Evans blue permeated into the brain is reduced
- Expression of tight junction protein Claudin-5 (Claudin-5): reduce down-regulation of expression of the blood-brain barrier tight junction protein of Claudin-5
- Amount of Evans blue permeated into the brain [5]: the amount of Evans blue permeated into the brain is reduced
